Data from ChEMBL document CHEMBL4507319 (2021).

Tests used:
[1] = biological target: Tyrosine-protein kinase HCK (Homo sapiens) (UniProt P08631); test: Hck(h) activated Eurofins kinase panel; conditions: Compound concentration 1.0 uM
[2] = biological target: Tyrosine-protein kinase JAK2 (Homo sapiens) (UniProt O60674); test: JAK2(h) Eurofins kinase panel; conditions: Compound concentration 1.0 uM
[3] = biological target: Tyrosine-protein kinase CSK (Homo sapiens) (UniProt P41240); test: CSK(h) Eurofins kinase panel; conditions: Compound concentration 1.0 uM
Sequence of Tyrosine-protein kinase CSK (Homo sapiens) (P41240 2-450 limits assumed): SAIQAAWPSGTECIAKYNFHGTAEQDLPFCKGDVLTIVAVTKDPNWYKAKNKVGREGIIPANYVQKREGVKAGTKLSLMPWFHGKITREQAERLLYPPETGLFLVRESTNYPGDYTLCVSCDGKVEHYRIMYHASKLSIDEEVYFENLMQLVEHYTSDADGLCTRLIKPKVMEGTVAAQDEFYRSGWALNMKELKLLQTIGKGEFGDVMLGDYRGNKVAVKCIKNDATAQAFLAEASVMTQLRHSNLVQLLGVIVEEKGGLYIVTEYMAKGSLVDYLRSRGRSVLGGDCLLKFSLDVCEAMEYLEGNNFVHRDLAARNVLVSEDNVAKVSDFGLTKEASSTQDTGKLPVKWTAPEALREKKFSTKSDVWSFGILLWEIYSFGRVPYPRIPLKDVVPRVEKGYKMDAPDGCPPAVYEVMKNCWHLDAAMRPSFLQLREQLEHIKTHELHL

[4] = biological target: Ribosomal protein S6 kinase alpha-1 (Homo sapiens, UniProt Q15418)
Sequence of Ribosomal protein S6 kinase alpha-1 (Q15418 whole entry): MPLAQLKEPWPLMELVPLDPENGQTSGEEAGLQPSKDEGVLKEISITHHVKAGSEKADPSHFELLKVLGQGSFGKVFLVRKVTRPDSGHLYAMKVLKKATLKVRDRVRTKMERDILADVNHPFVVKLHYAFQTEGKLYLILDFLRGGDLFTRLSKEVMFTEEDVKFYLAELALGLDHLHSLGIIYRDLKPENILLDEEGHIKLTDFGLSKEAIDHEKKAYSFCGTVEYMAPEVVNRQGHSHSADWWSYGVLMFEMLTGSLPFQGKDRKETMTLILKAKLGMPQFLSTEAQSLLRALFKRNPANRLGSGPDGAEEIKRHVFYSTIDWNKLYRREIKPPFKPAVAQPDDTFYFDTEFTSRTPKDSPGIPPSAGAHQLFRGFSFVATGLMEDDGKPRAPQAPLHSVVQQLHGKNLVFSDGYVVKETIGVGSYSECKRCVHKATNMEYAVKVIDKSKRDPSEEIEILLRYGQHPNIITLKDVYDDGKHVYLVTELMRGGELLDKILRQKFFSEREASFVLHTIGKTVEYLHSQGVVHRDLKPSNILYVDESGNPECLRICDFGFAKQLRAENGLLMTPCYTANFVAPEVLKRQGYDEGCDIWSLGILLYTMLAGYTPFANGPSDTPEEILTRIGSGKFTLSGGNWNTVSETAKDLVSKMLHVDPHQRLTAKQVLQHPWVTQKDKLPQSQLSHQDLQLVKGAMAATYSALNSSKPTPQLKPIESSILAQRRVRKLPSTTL

[5] = biological target: T1, Myosin light chain kinase (Homo sapiens) (UniProt Q32MK0); test: MLCK(h) Eurofins kinase panel; conditions: Compound concentration 1.0 uM
T1 sequence (whole entry): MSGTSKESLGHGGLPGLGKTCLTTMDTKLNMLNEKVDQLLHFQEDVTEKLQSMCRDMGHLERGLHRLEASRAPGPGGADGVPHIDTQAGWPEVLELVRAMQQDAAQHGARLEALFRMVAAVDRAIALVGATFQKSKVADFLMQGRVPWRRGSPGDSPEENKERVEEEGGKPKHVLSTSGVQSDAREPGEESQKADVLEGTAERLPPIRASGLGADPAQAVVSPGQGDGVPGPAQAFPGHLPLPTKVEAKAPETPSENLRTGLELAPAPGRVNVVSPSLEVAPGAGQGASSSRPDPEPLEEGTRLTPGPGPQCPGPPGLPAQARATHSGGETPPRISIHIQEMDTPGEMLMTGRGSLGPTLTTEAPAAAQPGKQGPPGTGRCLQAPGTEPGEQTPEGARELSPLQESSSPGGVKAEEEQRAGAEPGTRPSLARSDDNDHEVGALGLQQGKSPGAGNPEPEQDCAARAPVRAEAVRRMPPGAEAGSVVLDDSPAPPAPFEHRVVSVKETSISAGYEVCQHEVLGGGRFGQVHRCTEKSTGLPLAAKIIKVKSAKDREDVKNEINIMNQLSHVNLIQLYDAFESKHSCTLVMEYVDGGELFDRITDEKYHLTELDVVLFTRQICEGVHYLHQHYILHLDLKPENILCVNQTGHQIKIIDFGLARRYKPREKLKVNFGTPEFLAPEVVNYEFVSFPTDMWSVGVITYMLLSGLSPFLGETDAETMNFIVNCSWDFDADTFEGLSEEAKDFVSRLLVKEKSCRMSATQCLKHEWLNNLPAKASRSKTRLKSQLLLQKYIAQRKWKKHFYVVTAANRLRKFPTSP

Sequence of Tyrosine-protein kinase JAK2 (Homo sapiens) (O60674 whole entry): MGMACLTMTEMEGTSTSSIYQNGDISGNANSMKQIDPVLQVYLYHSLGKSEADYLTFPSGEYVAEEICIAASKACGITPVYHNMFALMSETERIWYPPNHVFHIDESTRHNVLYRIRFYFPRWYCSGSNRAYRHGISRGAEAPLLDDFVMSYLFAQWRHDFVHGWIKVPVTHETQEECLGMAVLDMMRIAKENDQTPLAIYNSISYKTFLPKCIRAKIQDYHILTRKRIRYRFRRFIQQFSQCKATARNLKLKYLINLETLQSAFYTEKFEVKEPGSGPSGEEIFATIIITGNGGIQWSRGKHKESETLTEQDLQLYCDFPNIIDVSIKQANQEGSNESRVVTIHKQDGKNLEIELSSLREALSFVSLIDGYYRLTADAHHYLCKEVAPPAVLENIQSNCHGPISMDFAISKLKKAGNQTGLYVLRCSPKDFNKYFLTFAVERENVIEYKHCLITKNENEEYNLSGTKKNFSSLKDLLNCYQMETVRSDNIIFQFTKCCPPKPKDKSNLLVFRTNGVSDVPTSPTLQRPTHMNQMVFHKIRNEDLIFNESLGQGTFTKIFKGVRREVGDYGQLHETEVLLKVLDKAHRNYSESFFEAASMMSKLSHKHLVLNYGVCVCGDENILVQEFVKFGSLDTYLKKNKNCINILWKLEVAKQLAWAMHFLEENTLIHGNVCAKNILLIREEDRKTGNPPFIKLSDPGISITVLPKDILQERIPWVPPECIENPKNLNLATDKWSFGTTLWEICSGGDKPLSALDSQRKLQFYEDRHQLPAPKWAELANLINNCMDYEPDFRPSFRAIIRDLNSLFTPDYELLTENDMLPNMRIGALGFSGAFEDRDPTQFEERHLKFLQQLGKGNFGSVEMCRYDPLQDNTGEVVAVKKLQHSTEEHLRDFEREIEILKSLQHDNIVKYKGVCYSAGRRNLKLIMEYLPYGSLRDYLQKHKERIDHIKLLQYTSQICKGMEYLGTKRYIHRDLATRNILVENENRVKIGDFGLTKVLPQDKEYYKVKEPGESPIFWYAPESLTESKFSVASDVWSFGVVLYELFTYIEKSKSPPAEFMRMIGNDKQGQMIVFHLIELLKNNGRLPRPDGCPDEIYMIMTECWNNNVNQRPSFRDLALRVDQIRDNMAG
Sequence of Tyrosine-protein kinase HCK (Homo sapiens) (P08631 2-526 limits assumed): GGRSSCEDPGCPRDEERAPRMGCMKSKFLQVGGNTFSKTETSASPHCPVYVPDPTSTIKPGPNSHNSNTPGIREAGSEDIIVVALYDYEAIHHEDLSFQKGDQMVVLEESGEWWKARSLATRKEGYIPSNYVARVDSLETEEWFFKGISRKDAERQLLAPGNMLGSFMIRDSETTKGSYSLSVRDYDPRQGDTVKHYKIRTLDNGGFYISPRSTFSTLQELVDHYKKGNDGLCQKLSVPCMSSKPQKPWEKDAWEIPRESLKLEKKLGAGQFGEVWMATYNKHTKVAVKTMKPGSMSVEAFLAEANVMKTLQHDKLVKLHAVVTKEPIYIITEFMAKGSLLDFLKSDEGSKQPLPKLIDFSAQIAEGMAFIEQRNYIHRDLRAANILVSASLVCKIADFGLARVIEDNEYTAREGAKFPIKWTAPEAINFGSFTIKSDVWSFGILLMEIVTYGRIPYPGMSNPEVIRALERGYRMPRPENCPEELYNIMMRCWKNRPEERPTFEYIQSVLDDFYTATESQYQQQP

Q: Which % residual kinase activity [1] does the source give for CCc1ccccc1C(=O)Nc1n[nH]c2c(C)c(F)c(C3C(C#N)=C(C)N(C)C(C)=C3C#N)cc12 [BAY-3827] here?
A: 109%

Q: And the % residual kinase activity [2]?
A: 88%

Q: And the % residual kinase activity [3]?
A: 90%

Q: And the IC50 [4]?
A: 9 nM

Q: And the % residual kinase activity [5]?
A: 32%
